Test results reported in patent publication US11999669B1, “Nitrogen activator stabilizer for reducing and protecting nitrogen fertilizer” (KING FAISAL UNIVERSITY, priority 2023, dated 2024).

Assay: Dissolution of ABT-PNB in water
Format: physicochemical
Description: Referring to Scheme 2 above, reaction of 0.2 mmol ethyl cyanoacetate with 0.2 mmol thiourea under MW-US condition for 5 min afforded compound 1. One pot reaction of 0.1 mmole of the compound (1) with 0.1 mmole of 2-nitro-6-cyanobenzoic acid (2) in boiling 2 mL ethanol under MW reaction condition for 10 min afforded 6-(imidazo[4,5-d]pyrimidin-2yl) benzoic acid derivative 3. Reflux reaction of the 0.01 mol compound 3 with 0.02 mole ethylchloroacetate in 10 mL acetone for 5 h afforded the ester 4. US promoted reaction of the 0.01 mol of the compound 4 was allowed to react with 0.01 mol of 4-(dimethylamino)butylchloride, thereby affording the desired fertilized ionic liquid ABT-PNB.

solubility in water: easily dissolved in water
SMILES: CCOC(=O)CSc1nc2c(=O)n(CCCCN(C)C)c(-c3cccc([N+](=O)[O-])c3C(=O)O)nc2[nH]1 [ABT-PNB, 2-(1-(4-(dimethylamino)butyl)-8-((2-ethoxy-2-oxoethyl)thio)-6-oxo-6,9-dihydro-1H-purin-2-yl)-6-nitrobenzoic acid]
